Results from patent US8648012B2, “Herbicidal compositions comprising naptalam” (BASF SE, priority 2009, dated 2014).

Columns and labels:
[1] = tested on: common amaranth (Amaranthus retroflexus AMARE); assay: Example 6: weed control of clopyralid or picloram plus naptalam mixtures; assay type: in vivo; details: postemergence
Description: (§1) Seedlings of common amaranth (Amaranthus retroflexus AMARE) and common lambsquarters (Chenopodium album; CHEAL), each 8 to 10 cm in height, were treated with postemergence applications of either clopyralid at 53.5 g ae/ha, picloram at 5.6 g ae/ha or naptalam at 140 g ae/ha, or the combination of clopyralid and naptalam at 53.5 g ae/ha and 140 g ae/ha, or the combination of picloram and naptalam at 5.6 g ae/ha and 140 g ae/ha, respectively, when they were 8-10 cm in height. All treatment mixtures contained 0.25% (v/v) non-ionic surfactant. […] Percent injury data was collected 10 days after treatment (DAT).

[2] = tested on: common lambsquarters (Chenopodium album; CHEAL); assay: as above; assay type: in vivo; details: postemergence
Description: as §1

[3] = tested on: sunflower (helianthus sp. HELSS); assay: Example 8: weed control of clopyralid+naptalam mixtures; assay type: in vivo; details: postemergence
Description: Seedlings of sunflower (helianthus sp. HELSS) were treated with postemergence applications of either clopyralid at 210 g ae/ha or at 105 g ae/ha, or naptalam at 56 g ae/ha, or the combination of clopyralid and naptalam at 210+56 g ae/ha or at 105+56 g ae/ha, respectively, when they were 8-10 cm in height. All treatment mixtures contained 0.25% (v/v) non-ionic surfactant. […] Percent injury data was collected 10 days after treatment (DAT).

[4] = tested on: Winter wheat (Triticum aestivum, TRZAW); assay: Example 3: preemergence crop selectivity of dicamba plus naptalam; assay type: in vivo; details: 13 DAT
Description: (§2) In all use examples, plants were grown in a greenhouse environment.
(§3) Naptalam was used as a commercial SL formulation containing 240 g/l of naptalam (Alanap-L from Cheminova). Clopyralid was used as a commercial SL formulation containing 360 g/l of clopyralid (Stinger of Dow Agroscience). Picloram was used as a commercial SL formulation containing 240 g/l of picloram (Tordon 22K of Dow Agroscience). A mixture of 2,4-D+MCPP+Dicamba was used as a commercial SL formulation containing 283 g/l of 2,4-D, 63 g/l of MCPP and 25 g/l of Dicamba (Trimec Classic of PBI Gordon Corp.). Dicamba was used as a commercial SL formulation containing 480 g/l of Dicamba (Clarity BASF).
(§4) The evaluation for the plant damage or injury caused by the chemical compositions was carried out using a scale from 0 to 100%, when compared with the untreated control plants. Here, 0 means no damage and 100 means complete destruction of the plants. I50 values were estimated from % injury data at different application rates by non-linear regression of log-logistic dose-response curves.
Winter wheat (Triticum aestivum, TRZAW) seeds were sown into soil, and the following day treated with five different rates of dicamba between 5.6 and 560 g ae/ha. Diflufenzopr (DFFP) or naptalam at rates of 224 g ae/ha was applied either alone or in combination with dicamba treatments. Following application, pots were placed in a completely randomized design with four replications per treatment. Percent injury data was collected 13 DAT.

[5] = tested on: TRZAW; assay: Example 5: postemergence wheat selectivity of dicamba plus naptalam; assay type: in vivo, Triticum aestivum; details: 8 DAT
Description: as §2, §3, §4
Seedlings of TRZAW were treated with five different rates of dicamba between 14 and 1400 g ae/ha when they were 12-14 cm in height. In addition, DFFP or naptalam at 70 g ae/ha were applied either alone or in combination with dicamba treatments. All treatment mixtures contained 0.25% (v/v) non-ionic surfactant plus 1% (w/v) ammonium sulfate. Following treatment, plants were placed in a completely randomized design with four replications per treatment. Percent injury data was collected 8 DAT.

[6] = tested on: tall fescue (Festuca arundinacea, FESAR); assay: Example 4: postemergence turf selectivity of dicamba plus naptalam; assay type: in vivo; details: 13 DAT
Description: as §2, §3, §4
(§5) Seedlings of tall fescue (Festuca arundinacea, FESAR) or perennial ryegrass (Lolium perenne, LOLPE) were treated with five different rates of dicamba between 28 and 2800 g ae/ha when they were 10-14 cm in height. DFFP or naptalam at rates of 140 g ae/ha were applied either alone or in combination with dicamba treatments. All treatment mixtures contained 0.25% (v/v) non-ionic surfactant plus 1% (w/v) ammonium sulfate. Following treatment, plants were placed in a completely randomized design with four replications per treatment. Percent injury data was collected 13 DAT.

[7] = tested on: perennial ryegrass (Lolium perenne, LOLPE); assay: as above; assay type: in vivo; details: 13 DAT
Description: as §2, §3, §4, §5

[8] = tested on: CHEAL; details: naptalam 0 g ae/ha
Description: as §2, §3, §4
(§6) Seedlings of ABUTH or CHEAL were treated with five different rates of dicamba between 0.14 and 140 g ae/ha when they were 10-12 cm in height. Naptalam was mixed with dicamba at rates of 0, 28, 35, 47, 70, or 140 g ae/ha to each dose-response series. All treatment mixtures included the addition of 0.25% (v/v) non-ionic surfactant and 1% (w/v) ammonium sulfate. Plants were placed in a completely randomized design with four replications per treatment. Percent injury data was collected 11 DAT and used to estimate the amount of dicamba necessary to obtain 50% injury (I50). […] estimates for solo applications of dicamba (I50 (—NPA)) were compared with I50 estimates for the combined application of dicamba and naptalam (I50 (+NPA)) to determine the relative increase of dicamba activity through the addition of naptalam.

[9] = tested on: ABUTH; details: naptalam 0 g ae/ha
Description: as §2, §3, §4, §6

[10] = tested on: Palmer amaranth (Amaranthus palmeri; AMAPA); assay: Example 1: postemergence weed control of dicamba plus naptalam mixtures, greenhouse; assay type: in vivo; details: 10 DAT
Description: as §2, §3, §4
(§7) 22 ff. E=X+Y−(X·Y/100) where • X=effect in percent using herbicide A at an application rate a; • Y=effect in percent using herbicide B at an application rate b; • E=expected effect (in %) of A+B at application rates a+b.
(§8) The value E corresponds to the effect (plant damage or injury) which is to be expected if the activity of the individual compounds is just additive. If the observed effect is higher than the value E calculated according to Colby, a synergistic effect is present.
(§9) Seedlings of velvetleaf (Abutilon theophrasti; ABUTH), Palmer amaranth (Amaranthus palmeri; AMAPA), and common lambsquarters (Chenopodium album; CHEAL) were treated with postemergence applications of either dicamba at 140 or 280 g ae/ha, naptalam at 56 g ae/ha, or the combination of dicamba and naptalam at 140 and 56 g ae/ha, respectively, when they were 10-12 cm in height. All treatment mixtures contained 0.25% (v/v) non-ionic surfactant plus 1% (w/v) ammonium sulfate. Plants were placed in a completely randomized design with four replications per treatment. Percent injury data was collected 10 days after treatment (DAT).

[11] = tested on: common lambsquarters (Chenopodium album; CHEAL); assay: as above; assay type: in vivo; details: 10 DAT
Description: as §2, §3, §4, §7, §8, §9

[12] = tested on: velvetleaf (Abutilon theophrasti; ABUTH); assay: as above; assay type: in vivo; details: 10 DAT
Description: as §2, §3, §4, §7, §8, §9

[13] = tested on: sunflower (helianthus sp. HELSS); assay: Example 7: weed control of 2,4-D+MCPP+dicamba+naptalam mixtures; assay type: in vivo; details: postemergence, naptalam 56 g ae/ha
Description: as §2, §3, §4
Plants were placed in a completely randomized design with four replications per treatment. Percent injury data was collected 10 days after treatment (DAT).

[14] = DFFP 140 g ae/ha alone (dicamba 0)
[15] = naptalam 140 g ae/ha alone (dicamba 0)

Which “Mean % Control (10 DAT) AMARE” value ([1]; clopyralid 53.5 g ae/ha) does the source give for O=C(O)c1nc(Cl)ccc1Cl [Clopyralid, clopyralid] here?
The value was 23%.

And the “Mean % Control (10 DAT) CHEAL” value ([2]; clopyralid 53.5 g ae/ha)?
Its value is 25%.

And the “Mean % Control (10 DAT) HELSS” value ([3]; clopyralid 105 g ae/ha)?
Its value is 28%.

What about the “Mean % Control (10 DAT) HELSS” value ([3]; clopyralid 210 g ae/ha) of the same compound?
Its value is 83%.

How did the “TRZAW Mean % Injury” value ([4]; DFFP 224 g ae/ha alone (dicamba 0)) turn out when C/C(=N\NC(=O)Nc1cc(F)cc(F)c1)c1ncccc1C(=O)O [DFFP, diflufenzopyr] was run?
Its value is 61.3%.

And the “TRZAW Mean % Injury” value ([5]; DFFP 70 g ae/ha alone (dicamba 0))?
Its value is 8.8%.

What about the “FESAR Mean % Injury” value [6, 14] of the same compound?
The value was 38.8 b %.

And the “LOLPE Mean % Injury” value [7, 14]?
The value was 30.0 c %.

Which results are given for COc1c(Cl)ccc(Cl)c1C(=O)O [Dicamba, 3,6-dichloro-2-methoxybenzoic acid]?
TRZAW Mean % Injury ([4]; dicamba alone 5.6 g ae/ha): 0%; TRZAW Mean % Injury ([4]; dicamba alone 17.7 g ae/ha): 0%; TRZAW Mean % Injury ([4]; dicamba alone 56.0 g ae/ha): 0%; TRZAW Mean % Injury ([4]; dicamba alone 177.0 g ae/ha): 0%; TRZAW Mean % Injury ([4]; dicamba alone 560.0 g ae/ha): 76.3%; TRZAW Mean % Injury ([5]; dicamba alone 14.0 g ae/ha): 0%; TRZAW Mean % Injury ([5]; dicamba alone 44.0 g ae/ha): 2.5%; TRZAW Mean % Injury ([5]; dicamba alone 140 g ae/ha): 5.0%; TRZAW Mean % Injury ([5]; dicamba alone 440 g ae/ha): 25.0%; TRZAW Mean % Injury ([5]; dicamba alone 1400 g ae/ha): 50.0%; CHEAL I50 (amount of dicamba for 50% injury) ([8]; 11 DAT): 35.2 g ae/ha; CHEAL Fold-increase of dicamba activity = I50 (-NPA)/I50(+NPA) [8]: 1.0; ABUTH I50 (amount of dicamba for 50% injury) ([9]; 11 DAT): 80.2 g ae/ha; ABUTH Fold-increase of dicamba activity = I50 (-NPA)/I50(+NPA) [9]: 1.0; Mean % Control AMAPA ([10]; dicamba 140 g ae/ha): 80.0%; Mean % Control AMAPA ([10]; dicamba 280 g ae/ha): 96.3%; Mean % Control CHEAL ([11]; dicamba 140 g ae/ha): 86.3%; Mean % Control CHEAL ([11]; dicamba 280 g ae/ha): 98.5%; Mean % Control ABUTH ([12]; dicamba 140 g ae/ha): 65.0%; Mean % Control ABUTH ([12]; dicamba 280 g ae/ha): 91.3%; FESAR Mean % Injury ([6]; dicamba alone 28.0 g ae/ha): 0 c %; FESAR Mean % Injury ([6]; dicamba alone 88.5 g ae/ha): 2.5 c %; FESAR Mean % Injury ([6]; dicamba alone 280 g ae/ha): 5.0 c %; FESAR Mean % Injury ([6]; dicamba alone 885 g ae/ha): 7.5 c %; FESAR Mean % Injury ([6]; dicamba alone 2800 g ae/ha): 32.5 b %; LOLPE Mean % Injury ([7]; dicamba alone 28.0 g ae/ha): 0 e %; LOLPE Mean % Injury ([7]; dicamba alone 88.5 g ae/ha): 0 e %; LOLPE Mean % Injury ([7]; dicamba alone 280 g ae/ha): 0 e %; LOLPE Mean % Injury ([7]; dicamba alone 885 g ae/ha): 0 e %; LOLPE Mean % Injury ([7]; dicamba alone 2800 g ae/ha): 7.5 de %

What does the source list for O=C(O)c1ccccc1C(=O)Nc1cccc2ccccc12 [Naptalam, N-1-naphthylphthalamic acid]?
Mean % Control (10 DAT) AMARE ([1]; naptalam 140 g ae/ha): 0%; Mean % Control (10 DAT) CHEAL ([2]; naptalam 140 g ae/ha): 5%; Mean % Control (10 DAT) HELSS ([3]; naptalam 56 g ae/ha): 10%; TRZAW Mean % Injury ([4]; naptalam 224 g ae/ha alone (dicamba 0)): 0%; TRZAW Mean % Injury ([5]; naptalam 70 g ae/ha alone (dicamba 0)): 0%; Mean % Control (10 DAT) HELSS [13]: 12%; Mean % Control AMAPA ([10]; naptalam 56 g ae/ha): 18.8%; Mean % Control CHEAL ([11]; naptalam 56 g ae/ha): 0%; Mean % Control ABUTH ([12]; naptalam 56 g ae/ha): 0%; FESAR Mean % Injury [6, 15]: 0 c %; LOLPE Mean % Injury [7, 15]: 0 e %

Nc1c(Cl)c(Cl)nc(C(=O)O)c1Cl [Picloram, picloram] was tested. Which “Mean % Control (10 DAT) AMARE” value ([1]; picloram 5.6 g ae/ha) did it give?
Its value is 43%.

What about the “Mean % Control (10 DAT) CHEAL” value ([2]; picloram 5.6 g ae/ha) of the same compound?
The value was 43%.
